In PubChem BioAssay AID256 (DTP/NCI, 2004) one finds T/C data, which are given here for 18 molecules.

Each structure is given as a SMILES string. Where “and” joins values, the source holds several entries; their conditions need not be identical. Identical values can stand only once. Toxic doses and inconclusive results are not listed.

The experiment deals with CD2F1 mice, L1210 leukemia ip, survival T/C. Kind of experiment: NCI In Vivo Anticancer Drug Screen. Data for tumor model L1210 Leukemia (intraperitoneal) in CD2F1 (CDF1) mice. As to conditions: endpoint: mean survival time, higher = longer survival. The procedure, abridged: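 Implant tumor; dose compound or vehicle; measure endpoint in both groups; report treated divided by control.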

Where [1] appears, read: dose: 25.0 mg/kg/injection, schedule: Q01DX009 (ip), vehicle: saline with Tween-80.
Setting [2] is: dose: 100.0 mg/kg/injection, schedule: Q01DX009 (ip), vehicle: saline with Tween-80.
The mark [3] stands for this setting: dose: 6.25 mg/kg/injection, schedule: Q01DX009 (ip), vehicle: saline with Tween-80.
[4] abbreviates: dose: 12.5 mg/kg/injection, schedule: Q01DX009 (ip), vehicle: saline with Tween-80.

As to `O=C(Oc1ccccc1)c1ccccc1O`, the T/C is 105 % of control under setting [1]; 109 % of control (dose: 50.0 mg/kg/injection, schedule: Q01DX009 (ip), vehicle: saline with Tween-80); 101 % of control (dose: 100.0 mg/kg/injection, schedule: Q01DX001 (ip), vehicle: saline with Tween-80); 105 % of control under setting [2]; 89 % of control (dose: 200.0 mg/kg/injection, schedule: Q01DX001 (ip), vehicle: saline with Tween-80); 95 % of control (dose: 400.0 mg/kg/injection, schedule: Q01DX001 (ip), vehicle: saline with Tween-80).
In the case of `CCC(=O)Oc1ccc(/C=N/NC(N)=S)nc1`, the T/C by setting is: (dose: 100.0 mg/kg/injection, schedule: Q04DX002 (ip), vehicle: other) 108 % of control; (dose: 178.0 mg/kg/injection, schedule: Q01DX001 (ip), vehicle: other) 114 % of control; (dose: 178.0 mg/kg/injection, schedule: Q04DX003 (ip), vehicle: other) 116 % of control; (dose: 200.0 mg/kg/injection, schedule: Q04DX002 (ip), vehicle: other) 123 % of control; (dose: 266.0 mg/kg/injection, schedule: Q01DX001 (ip), vehicle: other) 112 % of control; (dose: 266.0 mg/kg/injection, schedule: Q04DX003 (ip), vehicle: other) 113 % of control. Moreover, the T/C is, setting by setting: (dose: 400.0 mg/kg/injection, schedule: Q01DX001 (ip), vehicle: other) 118 % of control; (dose: 400.0 mg/kg/injection, schedule: Q04DX003 (ip), vehicle: other) 122 % of control; (dose: 600.0 mg/kg/injection, schedule: Q01DX001 (ip), vehicle: other) 110 % of control; (dose: 600.0 mg/kg/injection, schedule: Q04DX003 (ip), vehicle: other) 119 % of control; (dose: 900.0 mg/kg/injection, schedule: Q04DX003 (ip), vehicle: other) 122 % of control.
As to `COCCOCCN1CCN(CCCN2c3ccccc3Sc3ccc(C(F)(F)F)cc32)CC1`, the T/C runs as follows: (dose: 37.5 mg/kg/injection, schedule: Q04DX003 (ip), vehicle: saline) 113 % of control; (dose: 50.0 mg/kg/injection, schedule: Q04DX003 (ip), vehicle: saline) 121 % of control.
In the case of `CC1=CC(=O)C(c2ccc(O)cc2O)=CC1=O`, the T/C was 96 % of control (dose: 2.5 mg/kg/injection, schedule: Q01DX009 (ip), vehicle: saline with Tween-80); 102 % of control (dose: 2.5 mg/kg/injection, schedule: Q04DX003 (ip), vehicle: saline with Tween-80); 91 % of control (dose: 5.0 mg/kg/injection, schedule: Q01DX009 (ip), vehicle: saline with Tween-80); 104 % of control (dose: 5.0 mg/kg/injection, schedule: Q04DX003 (ip), vehicle: saline with Tween-80); 95 % of control (dose: 10.0 mg/kg/injection, schedule: Q01DX009 (ip), vehicle: saline with Tween-80); 95 % of control (dose: 10.0 mg/kg/injection, schedule: Q04DX003 (ip), vehicle: saline with Tween-80).
On to `CCSCCN1C(=O)C2C3CCC(O3)C2C1=O` (stereo not drawn), for which the T/C (dose: 100.0 mg/kg/injection, schedule: Q04DX002 (ip), vehicle: saline with Tween-80) was 93 % of control and the T/C (dose: 200.0 mg/kg/injection, schedule: Q04DX002 (ip), vehicle: saline with Tween-80) is 93 % of control.
Take `CCCCCC/C(C)=C(/C#N)C(=O)OC`: the T/C is, setting by setting: (dose: 75.0 mg/kg/injection, schedule: Q01DX001 (ip), vehicle: saline) 94 % of control; (dose: 150.0 mg/kg/injection, schedule: Q01DX001 (ip), vehicle: saline) 97 % of control; (dose: 300.0 mg/kg/injection, schedule: Q01DX001 (ip), vehicle: saline) 96 % of control.
On to `O=C(O)CCSc1ccc2c(c1)CCCC2`, for which the T/C is 101 % of control (dose: 100.0 mg/kg/injection, schedule: Q01DX009 (ip), vehicle: Klucel (hydroxypropylcellulose) (HPC)) and 98 % of control (dose: 200.0 mg/kg/injection, schedule: Q01DX009 (ip), vehicle: Klucel (hydroxypropylcellulose) (HPC)).
As for `Nc1ncnc2c1ccn2C1OC(CO)C2[O][Sn]([c]3ccccc3)([c]3ccccc3)[O]C21` (stereo not drawn), the T/C was 110 % of control (dose: 0.78 mg/kg/injection, schedule: Q01DX005 (ip), vehicle: other); 113 % of control (dose: 1.56 mg/kg/injection, schedule: Q01DX005 (ip), vehicle: other); 111 % of control (dose: 3.13 mg/kg/injection, schedule: Q01DX005 (ip), vehicle: other); 90 % of control (dose: 6.25 mg/kg/injection, schedule: Q01DX005 (ip), vehicle: other).
For `CC[N+](CC)=C1SCCCS1`, the T/C was 100 % of control (dose: 6.25 mg/kg/injection, schedule: Q04DX003 (ip), vehicle: saline); 100 % of control (dose: 12.5 mg/kg/injection, schedule: Q04DX003 (ip), vehicle: saline); 100 % of control (dose: 25.0 mg/kg/injection, schedule: Q04DX003 (ip), vehicle: saline).
For the molecule `CNCCNc1ccc(NCCNC)c2c1C(=O)c1ccccc1C2=O`, the T/C by setting is: (dose: 4.0 mg/kg/injection, schedule: Q01DX009 (ip), vehicle: acid diluted with saline) 150 % of control and 157 % of control; (dose: 8.0 mg/kg/injection, schedule: Q01DX009 (ip), vehicle: acid diluted with saline) 187 % of control and 195 % of control; (dose: 16.0 mg/kg/injection, schedule: Q01DX009 (ip), vehicle: acid diluted with saline) 177 % of control.
In the case of `CCCCCCCCNC(=O)CC`, the T/C (dose: 100.0 mg/kg/injection, schedule: Q01DX001 (ip), vehicle: saline) is 103 % of control; the T/C (dose: 100.0 mg/kg/injection, schedule: Q01DX009 (ip), vehicle: saline) is 94 % of control; the T/C (dose: 100.0 mg/kg/injection, schedule: Q04DX003 (ip), vehicle: saline) is 97 % of control; the T/C (dose: 200.0 mg/kg/injection, schedule: Q01DX001 (ip), vehicle: saline) was 100 % of control; the T/C (dose: 200.0 mg/kg/injection, schedule: Q01DX009 (ip), vehicle: saline) is 94 % of control; the T/C (dose: 200.0 mg/kg/injection, schedule: Q04DX003 (ip), vehicle: saline) was 101 % of control. In addition, the T/C is 100 % of control (dose: 400.0 mg/kg/injection, schedule: Q01DX001 (ip), vehicle: saline); 92 % of control (dose: 400.0 mg/kg/injection, schedule: Q01DX009 (ip), vehicle: saline); 98 % of control (dose: 400.0 mg/kg/injection, schedule: Q04DX003 (ip), vehicle: saline).
Consider `O=[Se](O)O.[NH-]C1CCCCC1[NH-].[Pt+2]` (stereo not drawn), for which, under “dose: 1.0 mg/kg/injection, schedule: Q04DX003 (ip), vehicle: dextrose”, the T/C was 124 % of control.
Consider `C=C[CH2][Sn]([CH2]C=C)([CH2]CCC)[CH2]CCC`, for which the T/C under setting [3] was 95 % of control, the T/C under setting [4] was 100 % of control and the T/C under setting [1] is 94 % of control.
Take `CCOC(=O)NC12c3ccccc3C(c3ccccc31)C(C(=O)O)C2C(=O)O` (stereo not drawn): the T/C under setting [2] is 90 % of control; the T/C (dose: 200.0 mg/kg/injection, schedule: Q01DX009 (ip), vehicle: saline with Tween-80) is 100 % of control; the T/C (dose: 400.0 mg/kg/injection, schedule: Q01DX009 (ip), vehicle: saline with Tween-80) was 103 % of control.
Regarding `NC(=O)CC(C1SCCCS1)N1C(=O)OC2C(O)C(CO)OC21` (stereo not drawn), the T/C runs as follows: (dose: 10.94 mg/kg/injection, schedule: Q01DX005 (ip), vehicle: water) 100 % of control; (dose: 21.88 mg/kg/injection, schedule: Q01DX005 (ip), vehicle: water) 93 % of control; (dose: 43.75 mg/kg/injection, schedule: Q01DX005 (ip), vehicle: water) 98 % of control; (dose: 87.5 mg/kg/injection, schedule: Q01DX005 (ip), vehicle: water) 100 % of control; (dose: 175.0 mg/kg/injection, schedule: Q01DX005 (ip), vehicle: water) 90 % of control.
In the case of `O=CO.[Cu+2]`, the T/C reads like this: (dose: 5.0 mg/kg/injection, schedule: Q01DX001 (ip), vehicle: saline) 90 % of control; (dose: 10.0 mg/kg/injection, schedule: Q01DX001 (ip), vehicle: saline) 98 % of control.
On to `N#CSCc1ccc(Cl)cc1`, for which the T/C reads like this: under setting [3], 98 % of control; under setting [4], 96 % of control; under setting [1], 106 % of control.
With `O=P1(N2CC2)OCCCN1CCCl` (stereo not drawn), the T/C was 102 % of control (dose: 3.8 mg/kg/injection, schedule: Q01DX001 (ip), vehicle: distilled water + Tween-80); 106 % of control (dose: 7.5 mg/kg/injection, schedule: Q01DX001 (ip), vehicle: distilled water + Tween-80); 107 % of control (dose: 15.0 mg/kg/injection, schedule: Q01DX001 (ip), vehicle: distilled water + Tween-80); 98 % of control (dose: 30.0 mg/kg/injection, schedule: Q01DX001 (ip), vehicle: distilled water + Tween-80); 110 % of control (dose: 62.5 mg/kg/injection, schedule: Q01DX001 (ip), vehicle: saline with Tween-80).
